For orientation: IC50 means the concentration at which inhibition is half-maximal. The viability, T/C is the result in the treated group divided by that in the control group, in per cent.

Drawing on PubChem BioAssay AID1919003 (Molecular Pharmacology Branch, DTP, NCI, 2023), this text covers IC50 and viability, T/C for five compounds.

The experiment relates to 786-0 complex spheroids with HUVEC/MSC, growth % test/control. The experiment is described as follows: Anticancer human tumor 786-0 cell line growth inhibition [AhR].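 For all read-outs here: compound exposure lasted seven days before the read-out.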 Conditions: for viability, T/C: stronger effect = lower value. In outline: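 Spheroids combined tumor cells with HUVEC endothelial cells and human MSCs as stroma. AhR antagonists were paired with standard or investigational drugs, each dosed in half-log steps down from near clinical Cmax, or from 10 microM where Cmax was unknown.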

[1] abbreviates: curve of first compound, second compound 0.1 µM.
Where [2] appears, read: curve of first compound, second compound 0.316 µM.
Where [3] appears, read: curve of first compound, second compound 1 µM.
Where [4] appears, read: curve of first compound, second compound 3.16 µM.
[5] abbreviates: curve of first compound, second compound 10 µM.
The mark [6] stands for this setting: second compound 0.1 µM, first compound 0.00949 µM.
Setting [7] is: second compound 0.1 µM, first compound 0.03 µM.
The mark [8] stands for this setting: second compound 0.1 µM, first compound 0.0949 µM.
[9] abbreviates: second compound 0.1 µM, first compound 0.3 µM.
[10] abbreviates: second compound 0.316 µM, first compound 0.00949 µM.
Where [11] appears, read: second compound 0.316 µM, first compound 0.03 µM.
[12] abbreviates: second compound 0.316 µM, first compound 0.0949 µM.
Where [13] appears, read: second compound 0.316 µM, first compound 0.3 µM.
Where [14] appears, read: second compound 1 µM, first compound 0.00949 µM.
[15] abbreviates: second compound 1 µM, first compound 0.03 µM.
Setting [16] is: second compound 1 µM, first compound 0.0949 µM.
Where [17] appears, read: second compound 1 µM, first compound 0.3 µM.
[18] abbreviates: second compound 3.16 µM, first compound 0.00949 µM.
Setting [19] is: second compound 3.16 µM, first compound 0.03 µM.
The mark [20] stands for this setting: second compound 3.16 µM, first compound 0.0949 µM.
[21] abbreviates: second compound 3.16 µM, first compound 0.3 µM.
[22] abbreviates: second compound 10 µM, first compound 0.00949 µM.
The mark [23] stands for this setting: second compound 10 µM, first compound 0.03 µM.
Where [24] appears, read: second compound 10 µM, first compound 0.0949 µM.
[25] abbreviates: second compound 10 µM, first compound 0.3 µM.

The structures appear in SMILES notation. Values joined by “and” are separate entries in the source; they are usually repeats but may differ in a detail not shown here. Equal values may be shown once.

Take `CC(C)c1c(-c2ccccc2)nc2c(C#N)c[nH]n2c1=O` + Cc1cncc(-c2nc(NCCc3c[nH]c4ccccc34)c3ncn(C(C)C)c3n2)c1: the IC50 is > 10 µM under setting [1]; > 10 µM under setting [2]; > 10 µM under setting [3]; > 10 µM under setting [4]; < 0.0316 µM under setting [5]. The viability, T/C by setting is: (second compound 0.1 µM, first compound 0.0316 µM) 115%; (second compound 0.1 µM, first compound 0.1 µM) 121%; (second compound 0.1 µM, first compound 0.316 µM) 112%; (second compound 0.1 µM, first compound 1 µM) 123%; (second compound 0.1 µM, first compound 3.16 µM) 113%; (second compound 0.1 µM, first compound 10 µM) 132%. For the same compound, the viability, T/C is, setting by setting: (second compound 0.316 µM, first compound 0.0316 µM) 120%; (second compound 0.316 µM, first compound 0.1 µM) 118%; (second compound 0.316 µM, first compound 0.316 µM) 118%; (second compound 0.316 µM, first compound 1 µM) 124%; (second compound 0.316 µM, first compound 3.16 µM) 115%; (second compound 0.316 µM, first compound 10 µM) 104%. Further, the viability, T/C was 114% (second compound 1 µM, first compound 0.0316 µM); 107% (second compound 1 µM, first compound 0.1 µM); 114% (second compound 1 µM, first compound 0.316 µM); 108% (second compound 1 µM, first compound 1 µM); 116% (second compound 1 µM, first compound 3.16 µM); 112% (second compound 1 µM, first compound 10 µM). The viability, T/C runs as follows: (second compound 3.16 µM, first compound 0.0316 µM) 82.9%; (second compound 3.16 µM, first compound 0.1 µM) 71.8%; (second compound 3.16 µM, first compound 0.316 µM) 78.2%; (second compound 3.16 µM, first compound 1 µM) 78%; (second compound 3.16 µM, first compound 3.16 µM) 67.2%; (second compound 3.16 µM, first compound 10 µM) 76.1%. Also, the viability, T/C was 7.79% (second compound 10 µM, first compound 0.0316 µM); 5.72% (second compound 10 µM, first compound 0.1 µM); 9.94% (second compound 10 µM, first compound 0.316 µM); 8.21% (second compound 10 µM, first compound 1 µM); 8.12% (second compound 10 µM, first compound 3.16 µM); 9.28% (second compound 10 µM, first compound 10 µM).
In the case of `CCN(c1cc(-c2ccc(CN3CCOCC3)cc2)cc(C(=O)NCc2c(C)cc(C)[nH]c2=O)c1C)C1CCOCC1`, the viability, T/C is 100% (2×) and 106% (compound 0.00949 µM); 98.8% and 111% and 109% (compound 0.03 µM); 105% and 96.5% and 96.9% (compound 0.0949 µM); 110% and 109% and 112% (compound 0.3 µM); 110% and 109% and 102% (compound 0.949 µM); 117% and 104% and 107% (compound 3 µM). Further, the half-maximal inhibitory concentration (IC50) (curve of compound) was > 3 µM.
As to `CCN(c1cc(-c2ccc(CN3CCOCC3)cc2)cc(C(=O)NCc2c(C)cc(C)[nH]c2=O)c1C)C1CCOCC1` + Cc1cncc(-c2nc(NCCc3c[nH]c4ccccc34)c3ncn(C(C)C)c3n2)c1, the concentration for half-maximal inhibition (IC50) is > 3 µM under setting [1]; > 3 µM under setting [2]; > 3 µM under setting [3]; > 3 µM under setting [4]; < 0.00949 µM under setting [5]. Besides, the viability, T/C is 121% under setting [6]; 119% under setting [7]; 112% under setting [8]; 121% under setting [9]; 120% (second compound 0.1 µM, first compound 0.949 µM); 131% (second compound 0.1 µM, first compound 3 µM). Moreover, the viability, T/C runs as follows: under setting [10], 125%; under setting [11], 120%; under setting [12], 128%; under setting [13], 131%; (second compound 0.316 µM, first compound 0.949 µM) 131%; (second compound 0.316 µM, first compound 3 µM) 138%. Moreover, the viability, T/C is 113% under setting [14]; 118% under setting [15]; 113% under setting [16]; 114% under setting [17]; 126% (second compound 1 µM, first compound 0.949 µM); 127% (second compound 1 µM, first compound 3 µM). The viability, T/C under setting [18] was 75.8%; the viability, T/C under setting [19] is 73.8%; the viability, T/C under setting [20] is 79.2%; the viability, T/C under setting [21] was 73.5%; the viability, T/C (second compound 3.16 µM, first compound 0.949 µM) is 74.4%; the viability, T/C (second compound 3.16 µM, first compound 3 µM) was 76.9%. Moreover, the viability, T/C is, setting by setting: under setting [22], 16%; under setting [23], 14.8%; under setting [24], 23.9%; under setting [25], 14.8%; (second compound 10 µM, first compound 0.949 µM) 4.25%; (second compound 10 µM, first compound 3 µM) 0.53%.
In the case of `O=C(C=Cn1cnc(-c2cc(C(F)(F)F)cc(C(F)(F)F)c2)n1)NNc1cnccn1`, the viability, T/C (compound 0.00949 µM) was 106% (2×) and 101%; the viability, T/C (compound 0.03 µM) is 110% and 108% and 112%; the viability, T/C (compound 0.0949 µM) was 109% and 107% and 105%; the viability, T/C (compound 0.3 µM) is 66.8% and 69.5% and 52.4%; the viability, T/C (compound 0.949 µM) was 47.5% and 48.1% and 38.7%; the viability, T/C (compound 3 µM) was 20.5% and 24.1% and 16.9%. Where the note is “curve of compound”, the IC50 was 0.7 µM and 0.745 µM and 0.356 µM.
Turning to `CCc1c2c(nc3ccc(O)cc13)-c1cc3c(c(=O)n1C2)COC(=O)[C@]3(O)CC` + CC(CO)NC(=O)c1cc(-c2ccc(Cl)cc2)nn(-c2cnn(C)c2)c1=O, the concentration for half-maximal inhibition (IC50) under setting [1] was 0.00522 µM; the IC50 under setting [2] was 0.00494 µM; the IC50 under setting [3] was 0.00422 µM; the IC50 under setting [4] turned out to be 0.00306 µM; the concentration for half-maximal inhibition (IC50) under setting [5] worked out at 0.00222 µM. Further, the viability, T/C is, setting by setting: (second compound 0.1 µM, first compound 0.000949 µM) 98.5%; (second compound 0.1 µM, first compound 0.003 µM) 82.1%; under setting [6], 15.3%; under setting [7], 5.93%; under setting [8], 2.72%; under setting [9], 2.09%. The viability, T/C runs as follows: (second compound 0.316 µM, first compound 0.000949 µM) 88%; (second compound 0.316 µM, first compound 0.003 µM) 75.5%; under setting [10], 16.6%; under setting [11], 5.34%; under setting [12], 3.26%; under setting [13], 2.5%. Moreover, the viability, T/C is 96.8% (second compound 1 µM, first compound 0.000949 µM); 65% (second compound 1 µM, first compound 0.003 µM); 14.1% under setting [14]; 6.51% under setting [15]; 3.19% under setting [16]; 2.39% under setting [17]. Also, the viability, T/C (second compound 3.16 µM, first compound 0.000949 µM) is 81.5%; the viability, T/C (second compound 3.16 µM, first compound 0.003 µM) was 50.7%; the viability, T/C under setting [18] was 14.6%; the viability, T/C under setting [19] was 5.63%; the viability, T/C under setting [20] was 2.91%; the viability, T/C under setting [21] is 2.49%. Further, the viability, T/C is 81.4% (second compound 10 µM, first compound 0.000949 µM); 39% (second compound 10 µM, first compound 0.003 µM); 14% under setting [22]; 6.45% under setting [23]; 3.27% under setting [24]; 2.66% under setting [25].
